The source of these data is patent US9765074B2, “Inhibitors of the renal outer medullary potassium channel” (Merck Sharp & Dohme Corp., priority 2013, dated 2017).

The target of the assay is T1, hROMK (hKir1.1) (Homo sapiens, UniProt P48048).
T1 construct: expressed in transfected cells
T1 sequence (P48048 1-391): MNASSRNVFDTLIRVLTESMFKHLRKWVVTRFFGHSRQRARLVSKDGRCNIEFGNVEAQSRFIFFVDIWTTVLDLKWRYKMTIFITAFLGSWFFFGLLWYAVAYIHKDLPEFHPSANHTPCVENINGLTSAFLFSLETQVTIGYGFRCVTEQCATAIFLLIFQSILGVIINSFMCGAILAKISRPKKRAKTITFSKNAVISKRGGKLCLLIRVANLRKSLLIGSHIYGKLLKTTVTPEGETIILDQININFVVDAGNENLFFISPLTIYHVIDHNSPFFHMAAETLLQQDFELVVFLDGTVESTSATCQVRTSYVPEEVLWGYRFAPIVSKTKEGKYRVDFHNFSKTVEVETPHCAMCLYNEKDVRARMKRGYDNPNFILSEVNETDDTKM
Nature of the assay: Thallium Flux Assay (ROMK channel functional thallium flux, FLIPR-Tetra). The format is cell-based. Conditions: HEK293 cells stably expressing hROMK (hKir1.1); 30 min compound incubation. An outline of the steps:
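HEK293 cells stably expressing hKir1.1, loaded with FluxOR dye for 90 min, then preincubated with compound for 30 min at ambient temperature with 0.3 mM ouabain and probenecid. Stimulated with 3 mM thallium/0.3 mM potassium (final); fluorescence read ~10 min. Normalized to 3 μM reference ROMK inhibitor; IC50 from inhibition of flux.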
The compound `COCC1=C(N2CCC3(CCN(C[C@H](O)c4cnc(-n5cnnn5)cn4)CC3)C2=O)COC1=O` [Example 200, 8-{(2S)-2-hydroxy-2-[5-(1H-tetrazol-1-yl)pyrazin-2-yl]ethyl}-2-[4-(methoxymethyl)-5-oxo-2,5-dihydrofuran-3-yl]-2,8-diazaspiro[4.5]decan-1-one] registered a half-maximal inhibitory concentration (IC50) of 80 nM.

`CC1=C(N2CCC3(CCN(C[C@H](O)c4ccc(-n5cnnn5)nc4C)CC3O)C2=O)COC1=O` (single isomer, unassigned) [Example 202] displayed a half-maximal inhibitory concentration (IC50) of 60 nM.

Compound `O=C1C=C(N2C(=O)C3(CCN(C[C@H](O)c4cnc(-n5cnnn5)cn4)CC3)CC2CF)CO1` (single isomer, unassigned) [Example 204] gave a concentration for half-maximal inhibition (IC50) of 300 nM.

In turn, `CO[C@@H](CN1CCC2(CC1)CCN(C1=C(C)C(=O)OC1)C2=O)c1ccc(-n2cnnn2)cn1` [Example 282, 8-{(2S)-2-methoxy-2-[5-(1H-tetrazol-1-yl)pyridin-2-yl]ethyl}-2-(4-methyl-5-oxo-2,5-dihydrofuran-3-yl)-1-oxo-2-aza-8-azoniaspiro[4.5]decane] yielded an IC50 of 70 nM.

On to `O=C1C=C(N2CCC3(CC4CCC(C3)N4C[C@H](O)c3ccc(-n4cnnn4)nn3)C2=O)CO1` (stereo partly drawn) [Example 44, (1R,5R)-8-{(2S)-2-hydroxy-2-[6-(1H-tetrazol-1-yl)pyridazin-3-yl]ethyl}-2′-oxo-1′-(5-oxo-2,5-dihydrofuran-3-yl)spiro[8-azoniabicyclo[3.2.1]octane-3,3′-pyrrolidine]], for which it took 10 nM to reach half-maximal inhibition (IC50). This IC50 lies about 7-fold lower than the previous one.

For the compound `COc1cc(-n2cnnn2)ccc1[C@@H](O)CN1CCC2(CC1)CCN(C1=C(C)C(=O)OC1)C2=O` [Example 119, 8-{(2R)-2-hydroxy-2-[2-methoxy-4-(1H-tetrazol-1-yl)phenyl]ethyl}-2-(4-methyl-5-oxo-2,5-dihydrofuran-3-yl)-1-oxo-2-aza-8-azoniaspiro[4.5]decane], the IC50 was 10 nM.

Compound `CC1=C(N2CCC3(CCN(C[C@@H](O)c4nnc(-n5cnnn5)c(C)c4C)CC3)C2=O)COC1=O` [Example 70, 8-{(2R)-2-[4,5-dimethyl-6-(1H-tetrazol-1-yl)pyridazin-3-yl]-2-hydroxyethyl}-2-(4-methyl-5-oxo-2,5-dihydrofuran-3-yl)-1-oxo-2-aza-8-azoniaspiro[4.5]decane] displayed an IC50 of 30 nM.

Compound `CO[C@@H](CN1CCC2(CC1)CCN(C1=C(C)C(=O)OC1)C2=O)c1ccc(-n2cnnn2)nc1` [Example 289, (R)-8-(2-(6-(1H-tetrazol-1-yl)pyridin-3-yl)-2-methoxyethyl)-2-(4-methyl-5-oxo-2,5-dihydrofuran-3-yl)-2,8-diazaspiro[4.5]decan-1-one] gave a half-inhibitory concentration (IC50) of 20 nM.

`C[C@H]1CC2(CCN(C[C@@H](O)c3ccc(-n4cnnn4)nc3)CC2)C(=O)N1C1=CC(=O)OC1` [Example 82, (3S)-8-{(2S)-2-hydroxy-2-[6-(1H-tetrazol-1-yl)pyridin-3-yl]ethyl}-3-methyl-1-oxo-2-(5-oxo-2,5-dihydrofuran-3-yl)-2-aza-8-azoniaspiro[4.5]decane] returned a 50% inhibitory concentration (IC50) of 10 nM.

As to `CC1=C(N2C(=O)C3(CC2C)CC2CCC(C3)N2C[C@H](O)c2ccc(-n3cnnn3)nc2)COC1=O` (single isomer, unassigned) [Example 133], the midpoint of inhibition, the IC50, lay at 10 nM.

On to `COC1CN(C2=C(C)C(=O)OC2)C(=O)C12CC1CCC(C2)N1C[C@H](O)c1cnc(-n2cnnn2)cn1` (single isomer, unassigned) [Example 160], for which the IC50 stood at 110 nM. This IC50 is about 11-fold higher than that of the compound before.

As for `CC1=C(N2CCC3(CCN(C[C@H](O)c4cnc(-n5cnnn5)c(F)c4)CC3)C2=O)COC1=O` [Example 26, 8-{(2R)-2-[5-fluoro-6-(1H-tetrazol-1-yl)pyridin-3-yl]-2-hydroxyethyl}-2-(4-methyl-5-oxo-2,5-dihydrofuran-3-yl)-1-oxo-2-aza-8-azoniaspiro[4.5]decane], the midpoint of inhibition, the IC50, lay at 40 nM.

`CC1=C(N2C=CC3(CCN(CCc4ccc(-n5cnnn5)nn4)CC3)C2=O)COC1=O` [Example 247, 2-(4-methyl-5-oxo-2,5-dihydrofuran-3-yl)-1-oxo-8-{2-[6-(1H-tetrazol-1-yl)pyridazin-3-yl]ethyl}-2-aza-8-azoniaspiro[4.5]dec-3-ene]: the half-maximal inhibitory concentration (IC50) is 20 nM.

`CC1=C(N2CCC3(CC4CCC(C3)N4C[C@H](O)c3ccc(-n4cnnn4)nn3)C2=O)COC1=O` (stereo partly drawn) [Example 52, (1R,5R)-8-{(2S)-2-hydroxy-2-[6-(1H-tetrazol-1-yl)pyridazin-3-yl]ethyl}-1′-(4-methyl-5-oxo-2,5-dihydrofuran-3-yl)-2′-oxospiro[8-azoniabicyclo[3.2.1]octane-3,3′-pyrrolidine]] registered a half-maximal inhibitory concentration (IC50) of 10 nM.

In the case of `CC1=C(N2CCC3(CCN(C(C)(C)C(O)c4ccc(-n5cnnn5)nc4)CC3)C2=O)COC1=O` (single isomer, unassigned) [Example 297], the midpoint of inhibition, the IC50, lay at 10 nM.

`COC1CN(C[C@@H](O)c2cnc(-n3cnnn3)cn2)CCC12CCN(C1=C(C)C(=O)OC1)C2=O` (single isomer, unassigned) [Example 173] had a 50% inhibitory concentration (IC50) of 770 nM. This IC50 lies about 77-fold higher than the previous one.

As for `COc1cc(-n2cnnn2)ccc1[C@H](O)CN1CCC2(CC1)CCN(C1=C(C)C(=O)OC1)C2=O` [Example 120, 8-{(2S)-2-hydroxy-2-[2-methoxy-4-(1H-tetrazol-1-yl)phenyl]ethyl}-2-(4-methyl-5-oxo-2,5-dihydrofuran-3-yl)-1-oxo-2-aza-8-azoniaspiro[4.5]decane], the IC50 came to 10 nM.

`C[C@H]1CC2(CCN(CCc3ccc(-n4cnnn4)nn3)CC2)C(=O)N1C1=CC(=O)OC1` [Example 264, (3S)-3-methyl-2-(5-oxo-2,5-dihydrofuran-3-yl)-8-{2-[6-(1H-tetrazol-1-yl)pyridazin-3-yl]ethyl}-2,8-diazaspiro[4.5]decan-1-one] gave an IC50 of 3 nM.

In turn, `CC1=C(N2C(=O)C3(CCN(C[C@@H](O)c4ccc(-n5cnnn5)nc4)CC3)CC2C)COC1=O` (single isomer, unassigned) [Example 64] returned an IC50 of 50 nM.

Consider `CC1=C(N2CCC3(CC4CCC(C3)N4C[C@H](O)c3nnc(-n4cnnn4)c(C)c3C)C2=O)COC1=O` (stereo partly drawn) [Example 50, (1R,5R)-8-{(2S)-2-[4,5-dimethyl-6-(1H-tetrazol-1-yl)pyridazin-3-yl]-2-hydroxyethyl}-1′-(4-methyl-5-oxo-2,5-dihydrofuran-3-yl)-2′-oxospiro[8-azoniabicyclo[3.2.1]octane-3,3′-pyrrolidine]], for which inhibition was half-maximal at 20 nM (IC50).

Take `CC1=C(N2CCC3(CCN(C[C@H](O)c4ccc(-n5cnnn5)c(C)n4)CC3)C2=O)COC1=O` [Example 30, 8-{(2S)-2-hydroxy-2-[6-methyl-5-(1H-tetrazol-1-yl)pyridin-2-yl]ethyl}-2-(4-methyl-5-oxo-2,5-dihydrofuran-3-yl)-1-oxo-2-aza-8-azoniaspiro[4.5]decane]: the midpoint of inhibition, the IC50, lay at 20 nM.

Turning to `CC1=C(N2CCC3(CCN(C[C@@H](O)c4ccc(-n5cnnn5)nn4)CC3F)C2=O)COC1=O` (single isomer, unassigned) [Example 197], the half-maximal inhibitory concentration (IC50) worked out at 30 nM.

With `CC1=C(N2CCC3(CCN(C[C@@H](O)c4ncc(-n5cnnn5)cc4F)CC3)C2=O)COC1=O` [Example 148, 8-{(2R)-2-[3-fluoro-5-(1H-tetrazol-1-yl)pyridin-2-yl]-2-hydroxyethyl}-2-(4-methyl-5-oxo-2,5-dihydrofuran-3-yl)-2,8-diazaspiro[4.5]decan-1-one], the IC50 came out at 100 nM.
